Patent publication US20090105238A1, “Compounds and Relative use for the Control of Phytopathogens” (ISAGRO RICERCA S.r.l, priority 2005, published 2009)

How the values were obtained:
Plasmopara viticola = assay: Fungicidal (preventive) activity against Peronospora of vines, leaf spray; type: in vivo, Plasmopara viticola on vine (cultivar Dolcetto); settings: for Activity 125 ppm / Activity 250 ppm: 7-day preventive activity; for Activity 125 ppm: scale 0 to 100 (healthy plant); for Activity 250 ppm: scale 0 (completely infected plant) to 100 (healthy plant); for Activity (dose ppm): 7-day preventive, scale 0-100
Procedure: Determination of the Fungicidal Activity Against Peronospora of Vines (Plasmopara viticola) […] After remaining 24 hours in a conditioned environment, the plants were sprayed on both sides of the leaves with an aqueous suspension of conidia of Plasmopara viticola (20,000 conidia per cm^3). The plants are kept in a humidity saturated environment at 21° C. for the incubation period of the fungus.

Erysiphe graminis = assay: Fungicidal (preventive) activity against oidium of wheat, leaf spray; type: in vivo, Erysiphe graminis on wheat (cultivar Gemini); settings: 5-day preventive, scale 0-100
Procedure: Determination of the Fungicidal Activity Against Oidium of Wheat (Erysiphe graminis)
(§1) Leaves of wheat plants (cultivar Gemini), grown in vases in a conditioned environment (20±1° C., 70% relative humidity) are treated by spraying both sides of the leaves with compounds 1, 2 and 3, dispersed in a hydroacetone solution at 20% by volume in acetone. […]
(§2) The plants are kept in a humidity saturated environment at a temperature ranging from 18 to 24° C. for the incubation period of the fungus.
At the end of this period (12 days), the fungicidal activity is evaluated according to an evaluation percentage scale from 0 (completely infected plant) to 100 (healthy plant).

Puccinia recondita = assay: Fungicidal (preventive) activity against wheat rust, leaf spray; type: in vivo, Puccinia recondita on wheat (cultivar Gemini); settings: 5-day preventive, scale 0-100
Procedure: Determination of the Fungicidal Activity Against Wheat Rust (Puccinia recondita)
as §1, §2
At the end of this period (14 days), the fungicidal activity is evaluated according to an evaluation percentage scale from 0 (completely infected plant) to 100 (healthy plant).

PR1 = assay: Gene response (PR1 expression, quantitative PCR) in treated seedlings; type: in vivo, arabidopsis thaliana; settings: 800 ppm and 1600 ppm; leaves collected after 24 hours of treatment; compared with blank and glycine betaine (FIG. 1)
Procedure: Determination of the Gene Response of the Compounds Having General Formula (I) and their Mixtures with Other Fungicides
Four-week-old seedlings of arabidopsis thaliana were treated with the compounds having general formula (I) or their mixtures with other fungicides and the leaves were collected after 24 hours of treatment.
The total RNA was extracted from 0.05 g of fresh tissue using the “Genelute mammalian total RNA kit (Sigma)” according to the protocol indications. The cDNA were synthesized using “RevertAid™ M-MuLV Reverse Transcriptase” commercialized by Fermentas Life Sciences according to the following protocol: 2 μg of total RNA were mixed with 0.5 μg of oligo(dT) 18.
Deionized water (nuclease free) was then added to bring the reaction volume to 11 μl, the reaction was subsequently incubated at 70° C. for 5 minutes and then cooled in ice.
The following reagents were then added to the mixture:
4 μl of 5× reaction buffer, 10 mM of dNTP mix, 20 units of Ribonuclease inhibitor.
The reaction was incubated at 37° C. for 5 minutes, 200 units of RevertAid™ M-MuLV Reverse Transcriptase were subsequently added to the mixture and the reaction was incubated at 42° C. for 60 minutes. […]
A quantitative PCR analysis was effected on the cDNA using a mixture of primer/competimers of the ribosomal RNA 18S as internal standard in a ratio of 9:1. […]

CCCCCCCCCCCC[N+](C)(C)CC(O)CS(=O)(=O)[O-] (centres unmarked) [Compound 5, Laurylhydroxysultaine]
Activity 125 ppm (Plasmopara viticola): 85 | Activity 250 ppm (Plasmopara viticola): 99

CCCCCCCCCCCC(=O)NCCC[N+](C)(C)CC(=O)[O-] [Compound 7, Laurylamidopropylbetaine]
Activity 125 ppm (Plasmopara viticola): 95 | Activity 250 ppm (Plasmopara viticola): 100

CCCCCCCCCCCC(=O)NCCC[N+](C)(C)C(C(=O)[O-])C(C)C (centres unmarked) [Compound 24, laurylamidopropyl[L]valinebetaine]
Activity 125 ppm (Plasmopara viticola): 88 | Activity 250 ppm (Plasmopara viticola): 99

CCCCCCCCCCCC(=O)NCCC[N+]1(C)CCCC1C(=O)[O-] (centres unmarked) [Compound 25, laurylamidopropyl[L]prolinebetaine]
Activity 125 ppm (Plasmopara viticola): 95 | Activity 250 ppm (Plasmopara viticola): 100

CCCCCCCCCCCC(=O)NCCC[N+](C)(C)C(C)C(=O)[O-] (centres unmarked) [Compound 26, laurylamidopropyl[L]alaninebetaine]
Activity 125 ppm (Plasmopara viticola): 90 | Activity 250 ppm (Plasmopara viticola): 95

CCCCCCCCCCCC(=O)NCCC[N+](C)(C)C(CC(=O)[O-])c1ccccc1 (stereo not drawn) [Compound 28, laurylamidopropyl- β-phenylalaninebetaine]
Activity 125 ppm (Plasmopara viticola): 90 | Activity 250 ppm (Plasmopara viticola): 99

CCCCCCCCCCCC(=O)NCCC[N+](C)(C)C(CC(=O)[O-])c1ccc(Cl)cc1 (stereo not drawn) [Compound 29, laurylamidopropyl-β-4-chlorophenylalaninebetaine]
Activity 125 ppm (Plasmopara viticola): 90 | Activity 250 ppm (Plasmopara viticola): 95

CCCCCCCCCCCC(=O)NCCC[N+](C)(C)CCC(=O)[O-] [Compound 30, laurylamidopropyl- β-alaninebetaine]
Activity 125 ppm (Plasmopara viticola): 85 | Activity 250 ppm (Plasmopara viticola): 90

C[N+](C)(C)CC(=O)[O-] [Glycine betaine, reference compound]
Activity (dose ppm) (Plasmopara viticola; 30 ppm): 30

COC(=O)CC(NC(=O)[C@@H](NC(=O)OC(C)C)C(C)C)c1ccc(Cl)cc1 (some centres unmarked) [IR5885, reference compound]
Activity (dose ppm) (Plasmopara viticola; 0.22 ppm): 15 | Activity (dose ppm) (Plasmopara viticola; 0.45 ppm): 41 | Activity (dose ppm) (Erysiphe graminis; 500 ppm): 20 | Activity (dose ppm) (Puccinia recondita; 500 ppm): 15

FC(F)C(F)(F)OCC(Cn1cncn1)c1ccc(Cl)cc1Cl (centres unmarked) [Tetraconazole, tetraconazole]
Activity (dose ppm) (Plasmopara viticola; 30 ppm): 20 | Activity (dose ppm) (Erysiphe graminis; 1.8 ppm): 48 | Activity (dose ppm) (Puccinia recondita; 30 ppm): 58

Cholanylamidopropylbetaine [Compound 11]
Activity 125 ppm (Plasmopara viticola): 90 | Activity 250 ppm (Plasmopara viticola): 94

Cholesterylcarbonylamidopropylbetaine [Compound 10]
Activity 125 ppm (Plasmopara viticola): 90 | Activity 250 ppm (Plasmopara viticola): 95

Cocamidopropyl- β-4-chlorophenylalaninebetaine [Compound 36]
Activity 125 ppm (Plasmopara viticola): 85 | Activity 250 ppm (Plasmopara viticola): 94

Cocamidopropyl- β-alaninebetaine [Compound 37]
Activity 125 ppm (Plasmopara viticola): 86 | Activity 250 ppm (Plasmopara viticola): 98

Cocamidopropyl-β-phenylalaninebetaine [Compound 35]
Activity 125 ppm (Plasmopara viticola): 89 | Activity 250 ppm (Plasmopara viticola): 95

Cocamidopropyl[L]phenylglycinebetaine [Compound 34]
Activity 125 ppm (Plasmopara viticola): 88 | Activity 250 ppm (Plasmopara viticola): 97

Cocamidopropyl[L]prolinebetaine [Compound 32]
Activity 125 ppm (Plasmopara viticola): 88 | Activity 250 ppm (Plasmopara viticola): 95

Cocamidopropyl[L]valinebetaine [Compound 31]
Activity 125 ppm (Plasmopara viticola): 85 | Activity 250 ppm (Plasmopara viticola): 98

Cocamidopropylbetaine [Compound 8]
Activity 125 ppm (Plasmopara viticola): 98 | Activity 250 ppm (Plasmopara viticola): 100 | Activity (dose ppm) (Plasmopara viticola; 30 ppm): 30 | Activity (dose ppm) (Erysiphe graminis; 500 ppm): 20 (500 ppm) | Activity (dose ppm) (Puccinia recondita; 125 ppm): 29 (125 ppm) | gene response (PR1): exceptional gene response

Cocamidopropylhydroxysultaine [Compound 9]
Activity 125 ppm (Plasmopara viticola): 95 | Activity 250 ppm (Plasmopara viticola): 100

cocamidopropyl[L]alaninebetaine [Compound 33]
Activity 125 ppm (Plasmopara viticola): 85 | Activity 250 ppm (Plasmopara viticola): 96
